Results: ChEMBL document CHEMBL3885861, “Open TG-GATES”

Species on record: Rattus norvegicus
Assay: Open TG-GATES - Regimen: Single
Type: toxicity, organism-based, Sprague-Dawley
Design: regimen Single, gender Male, age 6 weeks
Details: in vivo, po, route gavage; for Fbg / Hb / Ht / Lym / MCH / MCHC / MCV / Mono / Neu / PT / Plat / RBC / Ret / WBC / APTT / Bas / Eos: tissue Blood; for KIDNEY_L / KIDNEY_R / KIDNEY_TOTAL: tissue Kidney; for LIVER: tissue Liver; for A/G / ALP / ALT / AST / BUN / CRE / Ca / Cl / DBIL / GLC / IP / K / LDH / Na / PL / RALB / TBIL / TC / TG / TP / gamma-GTP: tissue Plasma
[1] = 300 mg/kg, 6 h, dose level Middle
[2] = 300 mg/kg, 9 h, dose level Middle
[3] = 300 mg/kg, 24 h, dose level Middle
[4] = 600 mg/kg, 3 h, dose level High

## O=C1CN(/N=C/c2ccc([N+](=O)[O-])o2)C(=O)N1 [NITROFURANTOIN]
[1]
  Fbg: 235.8 mg/dL
  Hb: 13.2 g/dL
  Ht: 40%
  Lym: 70.6%
  MCH: 21.1 pg
  MCHC: 33%
  MCV: 63.9 fL
  Mono: 8%
  Neu: 20%
  PT: 11.7 s
  Plat: 127.7 x10_4/uL
  RBC: 625.2 x10_4/ul
  Ret: 7.7%
  WBC: 80.2 x10_2/uL
  KIDNEY_L: 0.9 g
  KIDNEY_R: 0.9 g
  KIDNEY_TOTAL: 1.9 g
  LIVER: 8.7 g
  A/G: 2.4
  ALP: 1363.8 IU/L
  ALT: 30.6 IU/L
  AST: 63.4 IU/L
  BUN: 10 mg/dL
  CRE: 0.5 mg/dL
  Ca: 11.5 mg/dL
  Cl: 103.8 meq/L
  DBIL: 0.004 mg/dL
  GLC: 192.4 mg/dL
  IP: 9.1 mg/dL
  K: 4.2 meq/L
  LDH: 69 IU/L
  Na: 137.2 meq/L
  PL: 158.2 mg/dL
  RALB: 4.1 g/dL
  TBIL: 0.036 mg/dL
  TC: 113 mg/dL
  TG: 36.2 mg/dL
  TP: 5.8 g/dL
  gamma-GTP: 0.2 IU/L
[2]
  TERMINAL_BW: 204.4 g
  APTT: 17 s
  Bas: 0%
  Eos: 1.2%
  Fbg: 234.8 mg/dL
  Hb: 13.3 g/dL
  Ht: 40.4%
  Lym: 70.6%
  MCH: 21.5 pg
  MCHC: 33%
  MCV: 64.9 fL
  Mono: 7.8%
  Neu: 20.6%
  PT: 11.7 s
  Plat: 116.3 x10_4/uL
  RBC: 622.6 x10_4/ul
  Ret: 6.4%
  WBC: 62.7 x10_2/uL
  KIDNEY_L: 0.9 g
  KIDNEY_R: 1 g
  KIDNEY_TOTAL: 1.9 g
  LIVER: 8.9 g
  A/G: 2.2
  ALP: 1126.4 IU/L
  ALT: 29.6 IU/L
  AST: 59.4 IU/L
  BUN: 12.4 mg/dL
  CRE: 0.4 mg/dL
  Ca: 11.4 mg/dL
  Cl: 106 meq/L
  DBIL: 0.008 mg/dL
  GLC: 210 mg/dL
  IP: 8.5 mg/dL
  K: 4.4 meq/L
  LDH: 61.8 IU/L
  Na: 138.6 meq/L
  PL: 143.8 mg/dL
  RALB: 4 g/dL
  TBIL: 0.038 mg/dL
  TC: 88.6 mg/dL
  TG: 62.8 mg/dL
  TP: 5.9 g/dL
  gamma-GTP: 1 IU/L
[3]
  TERMINAL_BW: 197.5 g
  APTT: 16 s
  Bas: 0%
  Eos: 1.6%
  Fbg: 229.2 mg/dL
  Hb: 13.8 g/dL
  Ht: 42.2%
  Lym: 82%
  MCH: 21.3 pg
  MCHC: 32.6%
  MCV: 65.3 fL
  Mono: 4.2%
  Neu: 12.2%
  PT: 11.6 s
  Plat: 128 x10_4/uL
  RBC: 647 x10_4/ul
  Ret: 6.2%
  WBC: 69.5 x10_2/uL
  KIDNEY_L: 1 g
  KIDNEY_R: 1 g
  KIDNEY_TOTAL: 2.1 g
  LIVER: 8.1 g
  A/G: 2.2
  ALP: 1379.2 IU/L
  ALT: 32.6 IU/L
  AST: 62.6 IU/L
  BUN: 15.4 mg/dL
  CRE: 0.4 mg/dL
  Ca: 11.1 mg/dL
  Cl: 107.8 meq/L
  DBIL: 0.01 mg/dL
  GLC: 194.2 mg/dL
  IP: 9.1 mg/dL
  K: 4.6 meq/L
  LDH: 73.4 IU/L
  Na: 140.8 meq/L
  PL: 150.8 mg/dL
  RALB: 3.8 g/dL
  TBIL: 0.028 mg/dL
  TC: 85.8 mg/dL
  TG: 118.6 mg/dL
  TP: 5.6 g/dL
  gamma-GTP: 0 IU/L
[4]
  TERMINAL_BW: 206.4 g
  APTT: 16.4 s
  Bas: 0%
  Eos: 1%
  Fbg: 233.2 mg/dL
  Hb: 13.2 g/dL
  Ht: 40.3%
  Lym: 71%
  MCH: 21.1 pg
  MCHC: 32.8%
  MCV: 64.4 fL
  Mono: 6.4%
  Neu: 22.4%
  PT: 12.1 s
  Plat: 121.3 x10_4/uL
  RBC: 625.6 x10_4/ul
  Ret: 7.8%
  WBC: 72.9 x10_2/uL
  KIDNEY_L: 0.9 g
  KIDNEY_R: 1 g
  KIDNEY_TOTAL: 1.9 g
  LIVER: 8.8 g
  A/G: 2.2
